In patent US20240174618A1, “SUBSTITUTED (2-HETEROARYLOXYPHENYL)SULFONATES, SALTS THEREOF AND THEIR USE AS HERBICIDAL AGENTS” (Bayer Aktiengesellschaft, priority 2021, published 2024):

Tests used:
Format in all cases: in vivo
[1] = system: Lolium rigidum (LOLRI); test: A. Herbicidal pre-emergence efficacy, LOLRI
Procedure, shortened: (§1)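 Pre-emergence soil-surface spray in sandy loam pots, WP/EC in water plus 0.5% additive, 600 L/ha. Visual % damage rating after about 3 weeks in greenhouse vs. untreated; 0% = control-like, 100% = dead plants. Rates up to 1280 g/ha.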

[2] = system: Setaria viridis (SETVI); test: A. Herbicidal pre-emergence efficacy, SETVI
Procedure, shortened: as §1

[3] = system: Veronica persica (VERPE); test: A. Herbicidal pre-emergence efficacy, VERPE; conditions: for Pre-emergence efficacy against VERPE: dosage 80 g/ha
Procedure, shortened: as §1

[4] = system: Amaranthus retroflexus (AMARE); test: B. Herbicidal post-emergence efficacy, AMARE
Procedure, shortened: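 Post-emergence greenhouse test: one-leaf-stage plants, compound (WP/EC, +0.5% additive, 600 L/ha water, ≤1280 g/ha) applied to green parts; % efficacy scored visually vs untreated after ~3 wk; 100% = plants died.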

[5] = system: Polygonum convolvulus (POLCO); test: C. Herbicidal pre-emergence efficacy, POLCO; conditions: scored after about 3 weeks
Source text: Seeds of monocotyledonous and dicotyledonous weed plants and crop plants were placed in plastic or organic planting pots and covered with soil. The compounds of the invention, formulated in the form of wettable powders (WP) or as emulsion concentrates (EC), were then applied to the surface of the covering soil as aqueous suspension or emulsion with addition of 0.5% additive at a water application rate equivalent to 600 l/ha (converted). After the treatment, the pots were placed in a greenhouse and kept under good growth conditions for the test plants. After about 3 weeks, the efficacy of the preparations was scored visually in comparison with untreated controls as percentages. For example, • 100% efficacy=plants have died, • 0% efficacy=like untreated control plants.
Tables C1a to C14b below show the effects of selected compounds of the general formula (I) according to table 1 on various harmful plants at an application rate corresponding to 320 g/ha or less, which were obtained by the experimental procedure mentioned above.

[6] = system: Pharbitis purpurea (PHBPU); test: E. Herbicidal post-emergence efficacy, PHBPU
Procedure, shortened: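 Greenhouse weeds were treated post-emergence at the one-leaf stage, 2-3 weeks after sowing in sandy loam, with WP or EC formulations sprayed as aqueous suspension/emulsion plus 0.5% additive at 600 l/ha, at 320 g/ha or less. Efficacy was rated visually after about 3 weeks versus untreated controls (100% = dead, 0% = like control).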

[7] = system: Triticum aestivum (TRZAS); test: F. Post-emergence effect on useful plants, TRZAS; conditions: useful plant
Procedure, shortened: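 Crop plants grown in sandy loam in the greenhouse were sprayed at the one-leaf stage, 2-3 weeks after sowing, with WP or EC formulations plus 0.5% additive at 600 l/ha water. Damage was scored visually after about 3 weeks against untreated controls (0% = like control, 100% = dead).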

CCCCS(=O)(=O)Oc1ccccc1Oc1ncc(Cl)cn1 [Example I-6]
Pre-emergence efficacy against LOLRI ([1]; dosage 320 g/ha): 90%
Pre-emergence efficacy against LOLRI ([1]; dosage 1280 g/ha): 90%
Pre-emergence efficacy against SETVI ([2]; dosage 80 g/ha): 90%
Pre-emergence efficacy against SETVI ([2]; dosage 320 g/ha): 90%
Pre-emergence efficacy against SETVI ([2]; dosage 1280 g/ha): 100%
Pre-emergence efficacy against VERPE in % ([3]; 1280 g/ha): 90%
Post-emergence efficacy against AMARE ([4]; 80 g/ha): 90%
Post-emergence efficacy against AMARE ([4]; 320 g/ha): 100%
Post-emergence efficacy against AMARE ([4]; 1280 g/ha): 100%
Pre-emergence efficacy against POLCO ([5]; 80 g/ha): 90%
Pre-emergence efficacy against POLCO ([5]; 320 g/ha): 90%
Post-emergence efficacy against PHBPU in % ([6]; application rate 80 g/ha): 80%
Post-emergence efficacy against PHBPU in % ([6]; application rate 320 g/ha): 100%

O=S(=O)(CCCC(F)(F)F)Oc1c(Br)cccc1Oc1ncc(Cl)cn1 [Example I-30]
Pre-emergence efficacy against LOLRI ([1]; dosage 320 g/ha): 90%
Pre-emergence efficacy against LOLRI ([1]; dosage 1280 g/ha): 100%
Pre-emergence efficacy against SETVI ([2]; dosage 80 g/ha): 90%
Pre-emergence efficacy against SETVI ([2]; dosage 320 g/ha): 100%
Pre-emergence efficacy against SETVI ([2]; dosage 1280 g/ha): 100%
Pre-emergence efficacy against VERPE in % ([3]; 320 g/ha): 100%
Pre-emergence efficacy against VERPE in % ([3]; 1280 g/ha): 100%
Post-emergence efficacy against AMARE ([4]; 80 g/ha): 100%
Post-emergence efficacy against AMARE ([4]; 320 g/ha): 100%
Post-emergence efficacy against AMARE ([4]; 1280 g/ha): 100%

O=S(=O)(CCl)Oc1ccccc1Oc1ncc(Cl)cn1 [Example I-9]
Pre-emergence efficacy against LOLRI ([1]; dosage 1280 g/ha): 90%
Pre-emergence efficacy against SETVI ([2]; dosage 320 g/ha): 100%
Pre-emergence efficacy against SETVI ([2]; dosage 1280 g/ha): 100%
Pre-emergence efficacy against VERPE in % ([3]; 1280 g/ha): 100%
Post-emergence efficacy against AMARE ([4]; 80 g/ha): 90%
Post-emergence efficacy against AMARE ([4]; 320 g/ha): 100%
Post-emergence efficacy against AMARE ([4]; 1280 g/ha): 100%
Pre-emergence efficacy against POLCO ([5]; 320 g/ha): 90%
Post-emergence efficacy against TRZAS in % ([7]; application rate 80 g/ha): 20%

O=S(=O)(CCC(F)(F)F)Oc1c(Br)cccc1Oc1ncc(Cl)cn1 [Example I-31]
Pre-emergence efficacy against LOLRI ([1]; dosage 1280 g/ha): 100%
Pre-emergence efficacy against SETVI ([2]; dosage 320 g/ha): 100%
Pre-emergence efficacy against SETVI ([2]; dosage 1280 g/ha): 100%
Pre-emergence efficacy against VERPE in % ([3]; 320 g/ha): 100%
Pre-emergence efficacy against VERPE in % ([3]; 1280 g/ha): 100%
Post-emergence efficacy against AMARE ([4]; 80 g/ha): 100%
Post-emergence efficacy against AMARE ([4]; 320 g/ha): 100%
Post-emergence efficacy against AMARE ([4]; 1280 g/ha): 100%

O=S(=O)(CCCCl)Oc1cccc(F)c1Oc1ncc(Cl)cn1 [Example I-13]
Pre-emergence efficacy against LOLRI ([1]; dosage 1280 g/ha): 90%
Pre-emergence efficacy against SETVI ([2]; dosage 1280 g/ha): 100%
Pre-emergence efficacy against VERPE in % ([3]; 1280 g/ha): 100%
Post-emergence efficacy against AMARE ([4]; 320 g/ha): 90%
Post-emergence efficacy against AMARE ([4]; 1280 g/ha): 100%
Post-emergence efficacy against TRZAS in % ([7]; application rate 80 g/ha): 10%
Post-emergence efficacy against TRZAS in % ([7]; application rate 320 g/ha): 10%

Cc1cccc(OS(=O)(=O)CCCCl)c1Oc1ncc(Cl)cn1 [Example I-12]
Pre-emergence efficacy against LOLRI ([1]; dosage 1280 g/ha): 90%
Pre-emergence efficacy against SETVI ([2]; dosage 320 g/ha): 100%
Pre-emergence efficacy against SETVI ([2]; dosage 1280 g/ha): 100%
Pre-emergence efficacy against VERPE in % ([3]; 320 g/ha): 90%
Pre-emergence efficacy against VERPE in % ([3]; 1280 g/ha): 100%
Post-emergence efficacy against AMARE ([4]; 320 g/ha): 90%
Post-emergence efficacy against AMARE ([4]; 1280 g/ha): 100%
Post-emergence efficacy against PHBPU in % ([6]; application rate 80 g/ha): 90%
Post-emergence efficacy against PHBPU in % ([6]; application rate 320 g/ha): 90%
Post-emergence efficacy against TRZAS in % ([7]; application rate 80 g/ha): 0%
Post-emergence efficacy against TRZAS in % ([7]; application rate 320 g/ha): 0%

Cc1cccc(Oc2ncc(Cl)cn2)c1OS(=O)(=O)CCC(F)(F)F [Example I-29]
Pre-emergence efficacy against LOLRI ([1]; dosage 320 g/ha): 100%
Pre-emergence efficacy against LOLRI ([1]; dosage 1280 g/ha): 100%
Pre-emergence efficacy against SETVI ([2]; dosage 320 g/ha): 100%
Pre-emergence efficacy against SETVI ([2]; dosage 1280 g/ha): 100%
Pre-emergence efficacy against VERPE in % ([3]; 320 g/ha): 100%
Pre-emergence efficacy against VERPE in % ([3]; 1280 g/ha): 100%
Pre-emergence efficacy against VERPE [3]: 100%
Post-emergence efficacy against AMARE ([4]; 80 g/ha): 90%
Post-emergence efficacy against AMARE ([4]; 320 g/ha): 100%
Post-emergence efficacy against AMARE ([4]; 1280 g/ha): 100%

O=S(=O)(CCCC(F)(F)F)Oc1ccccc1Oc1ncc(Cl)cn1 [Example I-10]
Pre-emergence efficacy against LOLRI ([1]; dosage 320 g/ha): 90%
Pre-emergence efficacy against LOLRI ([1]; dosage 1280 g/ha): 90%
Pre-emergence efficacy against SETVI ([2]; dosage 80 g/ha): 90%
Pre-emergence efficacy against SETVI ([2]; dosage 320 g/ha): 90%
Pre-emergence efficacy against SETVI ([2]; dosage 1280 g/ha): 100%
Pre-emergence efficacy against VERPE in % ([3]; 320 g/ha): 100%
Pre-emergence efficacy against VERPE in % ([3]; 1280 g/ha): 100%
Pre-emergence efficacy against VERPE [3]: 90%
Post-emergence efficacy against AMARE ([4]; 80 g/ha): 90%
Post-emergence efficacy against AMARE ([4]; 320 g/ha): 90%
Post-emergence efficacy against AMARE ([4]; 1280 g/ha): 100%
Pre-emergence efficacy against POLCO ([5]; 80 g/ha): 90%
Pre-emergence efficacy against POLCO ([5]; 320 g/ha): 100%
Post-emergence efficacy against PHBPU in % ([6]; application rate 80 g/ha): 100%
Post-emergence efficacy against PHBPU in % ([6]; application rate 320 g/ha): 100%
